Counter-ions that a name gives are not always drawn.

The compound `CCCCOC(=O)c1ccc2c(c1)ncn2-c1cccc(N2CCN(CCOCC)CC2)c1` (as salt: HCl) [Compound 1c, n-Butyl 1-(3-(4-(ethoxyethyl)-1-piperazinyl)-phenyl)-benzimidazole-5-carboxylate] registered a melting point of 92 to 95 °C. The result for `CCOCCN1CCN(c2cccc(-n3cnc4cc(C(=O)OCC(C)C)ccc43)c2)CC1` (as salt: HCl) [Compound 1d, iso-Butyl 1-(3-(4-(ethoxyethyl)-1-piperazinyl)-phenyl)-benzimidazole-5-carboxylate] reads 154 to 160 °C; that for `COCCOC(=O)c1ccc2c(c1)ncn2-c1cccc(N2CCN(CCOC)CC2)c1` (as salt: HCl) [Compound 1e, 2-Methoxyethyl 1-(3-(4-(methoxyethyl)-1-piperazinyl)-phenyl)-benzimidazole-5-carboxylate], 173 to 178 °C; that for `COCCN1CCN(c2cccc(-n3cnc4cc(C(=O)OCCO)ccc43)c2)CC1` (as salt: HCl) [Compound 1f, 2-Hydroxyethyl 1-(3-(4-(methoxyethyl)-1-piperazinyl)-phenyl)-benzimidazole-5-carboxylate], 159 to 162 °C. Next, `CCCCOC(=O)c1ccc2c(c1)ncn2-c1cccc(N2CCN(CCOC)CC2)c1` (as salt: HCl) [Compound 1g, n-Butyl 1-(3-(4-(methoxyethyl)-1-piperazinyl)-phenyl)-benzimidazole-5-carboxylate]: 148 to 152 °C.
